Patent publication US9198925B2, “Pharmaceutical formulations containing an SGLT2 inhibitor” (AstraZeneca AB, priority 2007, dated 2015)
Like-named read-outs stand apart in the source and are kept apart here.

Tests used:
[1] = test system: healthy subjects; details: single ascending dose study, cited from earlier work
[2] = test system: treatment naive type II diabetes mellitus patients; test: 12-week study of weight loss and glucosuria in patients with type II diabetes; format: in vivo, human; details: for Mean reduction in BMI: absolute change
Protocol: Treatment naive type II diabetes mellitus patients, n=389, with inadequate blood glycemic control and low mean glucosuria at baseline were given once-daily oral treatments with dapagliflozin propylene glycol hydrate (2.5, 5, 10, 20, or 50 mgs), metformin XR® (750 mg titrated to 1500 mgs), or placebo over 12-weeks.

[3] = test system: healthy subjects; details: single ascending dose study
Protocol: (§1) Patients with type 2 diabetes were treated with placebo, 5 mg dapagliflozin propylene glycol hydrate, 25 mg dapagliflozin propylene glycol hydrate, or 100 mg dapagliflozin propylene glycol hydrate.

[4] = test system: subjects with type 2 diabetes; details: 14-day multiple dose
Protocol: as §1

[5] = test system: diet-induced obese (DIO) rats; details: oral 1, 5 or 10 mg/kg, urine volume x glucose concentration
Protocol: Obesity was induced in male Sprague-Dawley rats (mean baseline weight=220 g) via ad libitum access to 2 diets: normal diet (Harlan Teklad rat chow; 3.5 kcal/gm, 5% vegetable fat) and high-sucrose/high-fat diet (Research Diets D12327; 4.6 kcal/gm, 40% sucrose and 40% vegetable fat).
Urine volume and glucose concentration were used to determine total urine glucose loss over 24 hours post dose.
Total glucose lost was calculated as volume of urine x glucose concentration.

[6] = test system: diet-induced obese (DIO) rats
From the text: Obesity was induced in male Sprague-Dawley rats (mean baseline weight=220 g) via ad libitum access to 2 diets: normal diet (Harlan Teklad rat chow; 3.5 kcal/gm, 5% vegetable fat) and high-sucrose/high-fat diet (Research Diets D12327; 4.6 kcal/gm, 40% sucrose and 40% vegetable fat). Rats under these conditions typically consume approximately 30 g/day of the high-sucrose/high-fat chow and 2 g/day of the normal Harlan Teklad rat chow.
DIO rats were sorted into treatment groups based on body weight, total kilocalories consumed, and body composition (via echo MRI). […] Body weight and the weight of both diets were determined daily. Respiratory quotient data were obtained on days 2 and 15 of the study, echo MRI was obtained on day 22, and blood was collected for a fasting clinical chemistry tests on day 27.
Percent weight changes were calculated as daily weight—day 0 weight×100.

[7] = metformin XR 750 mg titrated to 1500 mgs, 12 weeks, n = 56
[8] = 2.5 mgs once daily, 12 weeks, n = 59
[9] = 5 mgs once daily, 12 weeks, n = 58
[10] = 10 mgs once daily, 12 weeks, n = 47
[11] = 20 mgs once daily, 12 weeks, n = 59
[12] = 50 mgs once daily, 12 weeks, n = 56

## CCOC(=O)OC[C@H]1O[C@@H](Oc2ccccc2Cc2ccc(OC)cc2)[C@H](O)[C@@H](O)[C@@H]1O [GSK 869,682]
[1]; 50 mg
  amount of glucose excretion/day: approximately 5 g
[1]; 100 mg
  amount of glucose excretion/day: ~6 g
[1]; 200 mg
  amount of glucose excretion/day: ~12 g
[1]; 500 mg
  amount of glucose excretion/day: ~16 g

## CN(C)C(=N)N=C(N)N [Metformin, metformin, reference compound]
[2]; [7]
  Mean reduction in BMI: −0.5
  Mean reduction in weight (%): −1.7%
[2]; type II diabetes patients, metformin XR 750 mg titrated to 1500 mgs, week 12
  mean glucosuria at week 12: 5.6 grams/day

## CCOc1ccc(Cc2cc([C@@H]3O[C@H](CO)[C@@H](O)[C@H](O)[C@H]3O)ccc2Cl)cc1.C[C@H](O)CO.O [dapagliflozin propylene glycol hydrate]
[3]; 5 mg
  amount of glucose excretion/day: approximately 30 g
[3]; 20 mg
  amount of glucose excretion/day: ~55 g
[3]; 50 mg
  amount of glucose excretion/day: ~60 g
[3]; 100 mg
  amount of glucose excretion/day: ~70 g
[4]; 5 mg
  24-hour urine glucose excretion compared to placebo: significantly higher
[4]; 25 mg
  24-hour urine glucose excretion compared to placebo: significantly higher
[4]; 100 mg
  24-hour urine glucose excretion compared to placebo: significantly higher
[2]; [8]
  Mean reduction in weight (%): −2.7%
  Mean reduction in BMI: −0.9
[2]; [9]
  Mean reduction in weight (%): −2.5%
  Mean reduction in BMI: −0.8
[2]; [10]
  Mean reduction in weight (%): −2.7%
  Mean reduction in BMI: −0.8
[2]; [11]
  Mean reduction in weight (%): −3.4%
  Mean reduction in BMI: −1.0
[2]; [12]
  Mean reduction in weight (%): −3.4%
  Mean reduction in BMI: −1.1
[2]; each dose group (2.5, 5, 10, 20, 50 mgs), 12 weeks
  proportion of patients who achieved a 5% weight reduction, versus placebo: higher proportion
[5]
  total amount of glucose lost in urine over 24 hours post dose: significantly increased with increasing doses
[6]; oral 0.5, 1 or 5 mpk, administered daily over 25 days, p<0.05 versus vehicle
  body weight loss versus vehicle: significant weight loss
[6]; pair fed subgroup, compared with ad libitum treated rats
  body weight loss when compound-induced overeating was prevented (pair fed to vehicle group): the weight loss was greater
